Test results reported in patent publication US8945627B2, “Micelles for the solubilization of gossypol” (priority 2011, dated 2015).
“And” between values parts separate entries of the source, which are not always exact repeats. Equal values may be shown once. Read-outs that look alike come from different tables or passages of the source. Blank lines part the entries; values can stand above or below the compound they belong to.

Columns and labels:
[1] = PEG-b-PCL micelle stability tests (drug quantification)
Protocol: (§2) Supernatant was collected and drug contents were analyzed by RP-HPLC analysis.

[2] = format: physicochemical
Protocol: Acetone was evaporated from the aqueous micelle solution under reduced pressure using a rotatory evaporator at 60° C.
(§1) Samples for RP-HPLC were prepared by adding acetonitrile (ACN) into each micelle to break it apart and quantify drugs dissolved in ACN.

[3] = tested on: ES-2 ovarian multicellular spheroids; experiment: cells; format: cell-based; settings: read-out: IC50 values (nM), Spheroids (BLI)
Protocol: Surviving cells after treatment were quantified by scanning bioluminescence of luc-ES-2 cells (IVIS optical imaging system).
The images of FIG. 7 were collected using an inverted light microscope on spheroids treated with PEG5k-b-PCL10k micelles representing 1000 nM of total drug concentration. In advance, to obtain luciferase-expressing ES-2 cells, ES-2 cells were transfected with pGL4 with neomycin resistance using Lipofectamine 2,000.
Bioluminescence of surviving cells was quantified and IC50 value was calculated by using Compusyn.

[4] = 200 mg polymer
Protocol: as §2

[5] = tested on: ES-2 ovarian monolayer cells; experiment: cells; format: cell-based
[6] = format: physicochemical; remark: listed apart in the source
Protocol: Acetone was evaporated from the aqueous micelle solution under reduced pressure using a rotatory evaporator at 60° C. The thin film of “polymer plus drug mixture” was reconstituted with 1 mL of 0.9% saline at 60° C.
as §1

[7] = Stability of the poloxamer micelle solution, 24 hours at ambient temperature; settings: Pluronic F68 micelles, gossypol + paclitaxel
Protocol: The drugs remaining in the solution were quantified by RP-HPLC described above. The micelle solution was centrifuged at 13,000 rpm for 5 minutes and was then filtered with a 0.45 μm nylon filter to remove any drug aggregates in the micelle solution. The concentration of each drug was compared with that of each drug at initial preparation to estimate the stability of micelle solution.

A549 NSCLC Cells = experiment: In vitro cytotoxicity, resazurin cell viability assay; format: cell-based; settings: Homo sapiens
Protocol: Cytotoxicity was determined using a resazurin cell viability assay. A549 cells were cultured in RPMI1640, supplemented with 10% FBS, 100 IU/mL penicillin, 100 μg/mL streptomycin, and 2 mM of L-glutamine. The cells were incubated at 37° C., 5% CO2 atmosphere. Exponentially grown cells were detached from the T-flask by adding a Trypsin-EDTA solution.
Each drug was dissolved at 10 mM as a stock solution using dimethyl sulfoxide (DMSO). […] The stock solution was diluted with cell culture media and the final concentration of DMSO was less than 0.1%. […] The fraction of viable cells were determined using a Cell titer Blue® dye assay (Promega, USA) by monitoring using fluorescence at 590 nm (emission). The inhibitory drug concentration (IC50) was determined by the median-effect equation using compusyn software (Combosyn Inc., US). The determination of IC50 was performed in three independent experiments.
The half maximal inhibitory drug concentration (IC50) was determined by the median-effect equation:
[formula] using CompuSyn software (Version 1.0, ComboSyn Inc., US). In the median-effect equation, fa is the fraction of affected cells; D is drug concentration; and m is the Hill slope or kinetic order.

[8] = neutral pH; cited from earlier work
[9] = 1-in-1 PEG5k-b-PCL10k micelles, 200 mg polymer
[10] = 1-in-1 micelles, 10× decreased drug loading
[11] = 2-in-1 CYP + GSP micelles, 200 mg polymer
[12] = 2-in-1 CYP + GSP micelles, 10× decreased drug loading
[13] = 2-in-1 PTX + CYP micelles, 200 mg polymer
[14] = 2-in-1 PTX + CYP micelles, 10× decreased drug loading
[15] = 3-in-1 PTX + CYP + GSP micelles, 200 mg polymer
[16] = 3-in-1 PTX + CYP + GSP micelles, 10× decreased drug loading
[17] = polymer 10 mg/ml, CYP + GSP micelles
[18] = polymer 10 mg/ml, PTX + CYP + GSP micelles
[19] = polymer 10 mg/ml, PTX + CYP micelles
[20] = polymer 10 mg/ml, single drug micelles
[21] = polymer 20 mg/ml, PTX + CYP + GSP micelles
[22] = polymer 100 mg/ml, PTX + CYP + GSP micelles
[23] = polymer 200 mg/ml, CYP + GSP micelles
[24] = polymer 200 mg/ml, PTX + CYP + GSP micelles
[25] = polymer 200 mg/ml, PTX + CYP micelles
[26] = PTX/CYP/GSP poloxamer 188 micelles
[27] = 2-in-1 PTX + GSP micelles, 200 mg polymer
[28] = 2-in-1 PTX + GSP micelles, 10× decreased drug loading
[29] = PEG5k-b-PCL10k micelles, bioluminescence readout
[30] = PEG5k-b-PCL10k micelles, Celltiter Blue readout, read-out: IC50 values (nM), Monolayer (Celltiter Blue)
[31] = PEG5k-b-PCL10k micelles, bioluminescence readout, read-out: IC50 values (nM), Monolayer (BLI)
[32] = singly-loaded poloxamer 188 micelles

SMILES: CC1=C2C[C@H]3[C@@H](CC=C4C[C@@H](O)CC[C@@]43C)[C@@H]2CC[C@]12O[C@@H]1C[C@H](C)CN[C@H]1[C@H]2C [CYP, 11-deoxojervine]
- % Remaining Day 0 [1, 9]: 100 ± 10.6%
- % Remaining Day 1 [1, 9]: 96.3 ± 5.0%
- % Remaining Day 0 [1, 10]: 100 ± 7.9%
- % Remaining Day 1 [1, 10]: 96.0 ± 4.4%
- % Remaining Day 0 [1, 11]: 100 ± 8.2%
- % Remaining Day 1 [1, 11]: 91.0 ± 5.3%
- % Remaining Day 0 [1, 12]: 100 ± 5.9%
- % Remaining Day 1 [1, 12]: 96.5 ± 4.4%
- % Remaining Day 0 [1, 13]: 100 ± 11.3%
- % Remaining Day 1 [1, 13]: 97.4 ± 5.7%
- % Remaining Day 0 [1, 14]: 100 ± 5.5%
- % Remaining Day 1 [1, 14]: 94.3 ± 5.3%
- % Remaining Day 0 [1, 15]: 100 ± 6.1%
- % Remaining Day 1 [1, 15]: 36.8 ± 1.5%
- % Remaining Day 0 [1, 16]: 100 ± 4.2%
- % Remaining Day 1 [1, 16]: 87.7 ± 2.6%
- drug loaded [2, 17]: 1.50 ± 0.50 mg/mL
- drug loaded [2, 18]: 1.03 ± 0.02 mg/mL
- drug loaded [2, 19]: 0.14 ± 0.06 mg/mL
- drug loaded [2, 20]: 0.05 ± 0.03 mg/mL
- drug loaded [2, 21]: 1.25 ± 0.11 mg/mL
- drug loaded [2, 22]: 4.47 ± 0.38 mg/mL
- drug loaded [2, 23]: 3.23 ± 0.99 mg/mL
- drug loaded [2, 24]: 6.2 mg/mL and 6.20 ± 0.49 mg/mL
- drug loaded [2, 25]: 0.89 ± 0.03 mg/mL
- IC50 [3]: 64.8 nM
- % Remaining Day 0 ([4]; CYP/GSP poloxamer 188 micelles): 100 ± 7.4%
- % Remaining Day 1 ([4]; CYP/GSP poloxamer 188 micelles): 106.9 ± 3.4%
- % Remaining Day 0 [4, 26]: 100 ± 4.9%
- % Remaining Day 1 [4, 26]: 101.2 ± 2.3%
- IC50 ([5]; read-out: IC50 values (nM), Monolayer (BLI)): 240 nM
- IC50 ([5]; read-out: IC50 values (nM), Monolayer (Celltiter Blue)): 245 nM
- drug loaded [6, 17]: 0.16 ± 0.04 mg/mL
- drug loaded [6, 18]: 0.21 ± 0.07 mg/mL
- drug loaded [6, 19]: 0.03 ± 0.001 mg/mL
- drug loaded [6, 20]: 0.012 ± 0.002 mg/mL
- drug loaded [6, 21]: 0.27 ± 0.07 mg/mL
- drug loaded [6, 22]: 3.55 ± 0.18 mg/mL
- drug loaded [6, 23]: 3.5 ± 0.3 mg/mL
- drug loaded [6, 24]: 5.1 mg/mL and 5.09 ± 0.29 mg/mL
- drug loaded [6, 25]: 0.08 ± 0.02 mg/mL

- % Remaining Day 0 [1, 9]: 100 ± 9.3%
- % Remaining Day 1 [1, 9]: 34.3 ± 3.1%
- % Remaining Day 0 [1, 10]: 100 ± 8.3%
- % Remaining Day 1 [1, 10]: 89.7 ± 5.2%
- % Remaining Day 0 [1, 13]: 100 ± 12.6%
- % Remaining Day 1 [1, 13]: 27.0 ± 2.9%
- % Remaining Day 0 [1, 14]: 100 ± 6.2%
- % Remaining Day 1 [1, 14]: 90.7 ± 5.1%
- % Remaining Day 0 [1, 27]: 100 ± 9.4%
- % Remaining Day 1 [1, 27]: 66.8 ± 4.1%
- % Remaining Day 0 [1, 28]: 100 ± 6.3%
- % Remaining Day 1 [1, 28]: 93.2 ± 4.9%
- % Remaining Day 0 [1, 15]: 100 ± 4.7%
- % Remaining Day 1 [1, 15]: 99.3 ± 2.2%
- % Remaining Day 0 [1, 16]: 100 ± 3.6%
- % Remaining Day 1 [1, 16]: 87.9 ± 2.7%
- IC50 [3, 29]: 8.7 nM
- % w/w drug(s) @ 24 hr [7]: 63.4 ± 35.4 % w/w
- Initial drug level in water [7]: 6.53 ± 0.31 mg/mL
- Drug level @ 24 hrs in water ([7]; ambient temperature): 4110 ± 2260 µg/mL
- IC50 [5, 31]: 12 nM
- drug loaded [6, 18]: 0.38 ± 0.12 mg/mL
- drug loaded [6, 19]: 0.01 ± 0.001 mg/mL
- drug loaded ([6]; polymer 10 mg/ml, PTX + GSP micelles): 0.87 ± 0.09 mg/mL
- drug loaded [6, 20]: 0.014 ± 0.002 mg/mL
- drug loaded [6, 21]: 0.63 ± 0.14 mg/mL
- drug loaded ([6]; polymer 200 mg/ml, PTX + CYP + GSP micelles, listed as PTX): 6.4 mg/mL and 6.41 ± 0.63 mg/mL
- drug loaded [6, 25]: 0.01 ± 0.01 mg/mL
- drug loaded ([6]; polymer 200 mg/ml, PTX + GSP micelles): 3.49 ± 0.39 mg/mL
SMILES: CC(=O)O[C@H]1C(=O)[C@@]2(C)[C@H]([C@H](OC(=O)c3ccccc3)[C@]3(O)C[C@H](OC(=O)[C@H](O)[C@@H](NC(=O)c4ccccc4)c4ccccc4)C(C)=C1C3(C)C)[C@]1(OC(C)=O)CO[C@@H]1C[C@@H]2O [Paclitaxel, paclitaxel]
- IC50 (A549 NSCLC Cells; A549, free drugs in DMSO stock, 72 hours, n = 3, mean ± SD, two drug combinations molar ratio 1:1, three drug 5:5:1, read-out: IC50): 0.616 ± 0.418 µM
- IC50 [5, 30]: 13 nM

SMILES: Cc1cc2c(C(C)C)c(O)c(O)c(C=O)c2c(O)c1-c1c(C)cc2c(C(C)C)c(O)c(O)c(C=O)c2c1O [Gossypol, gossypol]
- % Remaining Day 0 [1, 9]: 100 ± 4.7%
- % Remaining Day 1 [1, 9]: 89.4 ± 3.3%
- % Remaining Day 0 [1, 10]: 100 ± 5.6%
- % Remaining Day 1 [1, 10]: 98.3 ± 3.6%
- % Remaining Day 0 [1, 11]: 100 ± 4.9%
- % Remaining Day 1 [1, 11]: 89.8 ± 3.7%
- % Remaining Day 0 [1, 12]: 100 ± 4.1%
- % Remaining Day 1 [1, 12]: 95.4 ± 3.6%
- % Remaining Day 0 [1, 27]: 100 ± 4.4%
- % Remaining Day 1 [1, 27]: 97.0 ± 2.5%
- % Remaining Day 0 [1, 28]: 100 ± 7.1%
- % Remaining Day 1 [1, 28]: 89.5 ± 3.8%
- % Remaining Day 0 [1, 15]: 100 ± 3.8%
- % Remaining Day 1 [1, 15]: 82.3 ± 2.6%
- % Remaining Day 0 [1, 16]: 100 ± 3.8%
- % Remaining Day 1 [1, 16]: 81.0 ± 3.0%
- IC50 [3, 29]: 4820 nM
- IC50 (A549 NSCLC Cells; A549, 72 h): 6.5 ± 3.4 µM
- drug level in water (2-in-1 poloxamer 188 micelles, gossypol + 17-AAG): 5180 ± 470 µg/mL
- drug level in water (2-in-1 poloxamer 188 micelles, gossypol + paclitaxel): 4650 ± 620 µg/mL
- drug level in water (2-in-1 poloxamer 188 micelles, gossypol + paclitaxel, listed as gossypol): 4650 µg/mL
- drug level in water [32]: 5410 ± 140 µg/mL
- IC50 [5, 30]: > 100000 nM
- IC50 [5, 31]: > 100000 nM

- drug level in water [32]: 210 µg/mL
SMILES: C=CCNC1=C2C[C@@H](C)C[C@H](OC)[C@H](O)[C@@H](C)/C=C(\C)[C@H](OC(N)=O)[C@@H](OC)/C=C\C=C(/C)C(=O)NC(=CC1=O)C2=O [17-AAG, 17-allylamino-17-demethoxygeldanamycin]
- water solubility [8]: about 0.1 mg/mL
